Results from ChEMBL document CHEMBL1201862, “PubChem BioAssay data set” (2004).
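Growth conditions: 96-well plates. Treatment: test compound, 48 hours, 5 concentrations. Analysis: linear interpolation between bracketing concentrations; unreached endpoints set to highest concentration. GI50 is the concentration that inhibits growth by half.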 Active and inactive are the calls of the source. Rule as the data show it: active = GI50 up to about 1.1 µM and inactive = higher.

Assays:
Assay in all cases: NCI-60 cell line screen, 48 h
[1] = tested on: MDA-N
[2] = tested on: NCI/ADR-RES
[3] = tested on: SF-268
[4] = tested on: HL-60
[5] = tested on: BT-549
[6] = tested on: HOP-92
[7] = tested on: OVCAR-4
[8] = tested on: TK-10
[9] = tested on: PC-3
[10] = tested on: A498
[11] = tested on: MDA-MB-231
[12] = tested on: IGROV-1
[13] = tested on: M14
[14] = tested on: ACHN
[15] = tested on: HOP-62
[16] = tested on: 786-0
[17] = tested on: SK-MEL-2

Structure (SMILES) | GI50 [1] | GI50 [2] | GI50 [3] | GI50 [4] | GI50 [5] | GI50 [6] | GI50 [7] | GI50 [8] | GI50 [9] | GI50 [10] | GI50 [11] | GI50 [12] | GI50 [13] | GI50 [14] | GI50 [15] | GI50 [16] | GI50 [17]
c1ccc2c(OCC3CO3)ccc(OCC3CO3)c2c1 (stereo not given) | 2.8 µM (inactive) | 4.18 µM (inactive) | 0.571 µM (active) | 0.321 µM (active) | 6.49 µM (inactive) | 5.57 µM (inactive) | 7.05 µM (inactive) | 13.5 µM (inactive) | 4.76 µM (inactive) | 17 µM (inactive) | 10.5 µM (inactive) | 3.44 µM (inactive) | 3.38 µM (inactive) | 1.89 µM (inactive) | 3.03 µM (inactive) | 2.11 µM (inactive) | 
O=C1C(Cl)=C(NCCO)C(=O)c2c(O)ccc(O)c21 | 1.77 µM (inactive) | 5.18 µM (inactive) | 3.97 µM (inactive) | 2.6 µM (inactive) | 4.26 µM (inactive) | > 10 µM (inactive) | 0.6 µM (active) | > 10 µM (inactive) | 2.78 µM (inactive) | 1.36 µM (inactive) | 1.95 µM (inactive) | 2.49 µM (inactive) | 2.16 µM (inactive) | 5.01 µM (inactive) | 3.28 µM (inactive) | 5.53 µM (inactive) | 3.02 µM (inactive)
CCOC(=O)c1nc2ccccc2nc1Oc1cc(OC)cc(OC)c1 | > 100 µM (inactive) | > 100 µM (inactive) | 76.7 µM (inactive) | 8.41 µM (inactive) | > 100 µM (inactive) | 6.81 µM (inactive) | 8.49 µM (inactive) | > 100 µM (inactive) | > 100 µM (inactive) | > 100 µM (inactive) | > 100 µM (inactive) | > 100 µM (inactive) | > 100 µM (inactive) | > 100 µM (inactive) | 69.7 µM (inactive) | 35.5 µM (inactive) | > 100 µM (inactive)
CC(=O)c1nc2ccccc2n1CC(=O)c1ccc(Cl)cc1 | 1.93 µM (inactive) | 2.94 µM (inactive) | 3.94 µM (inactive) | 1.79 µM (inactive) | 3.55 µM (inactive) | 1.03 µM (active) | 5.26 µM (inactive) | 61.2 µM (inactive) | 5.45 µM (inactive) | 54.3 µM (inactive) | 2.79 µM (inactive) | 1.39 µM (inactive) | 2.92 µM (inactive) |  | 5.85 µM (inactive) | 3.13 µM (inactive) | 14.7 µM (inactive)
CC(=O)OCC1OC(O[C@@H]2c3c(O)c4c(c(O)c3C3=C(NN(c5ccc([N+](=O)[O-])cc5[N+](=O)[O-])[Se]3=O)[C@@]2(C)O)C(=O)c2ccccc2C4=O)C(OC(C)=O)C(OC(C)=O)C1OC(C)=O (stereo not given in full) | 0.273 µM (active) | 0.336 µM (active) | 0.139 µM (active) |  | 0.489 µM (active) | 0.451 µM (active) | 0.201 µM (active) | 0.497 µM (active) | 0.261 µM (active) | 0.288 µM (active) | 0.346 µM (active) | 0.303 µM (active) | 0.254 µM (active) | 0.222 µM (active) | 0.189 µM (active) | 0.147 µM (active) | 0.212 µM (active)
O=C(/C=C1\C[C@H]2C=Nc3ccccc3C(=O)N2C1)NCCCCNC(=O)/C=C1\C[C@H]2C=Nc3ccccc3C(=O)N2C1 | 11 µM (inactive) | 22.3 µM (inactive) | 9.95 µM (inactive) | 3.3 µM (inactive) | 12.9 µM (inactive) | 7.93 µM (inactive) | 8.99 µM (inactive) | 10.4 µM (inactive) | 14.4 µM (inactive) | 18.7 µM (inactive) | 0.494 µM (active) | 14.5 µM (inactive) | 6.12 µM (inactive) | 3.61 µM (inactive) | 17.2 µM (inactive) | 1.75 µM (inactive) | 15.2 µM (inactive)
Cc1nc2c(O)c3c(c(O)c2nc1C)C1C=CC3CC1 | 2.97 µM (inactive) | 3.71 µM (inactive) | 10.4 µM (inactive) | 0.973 µM (active) | 15.7 µM (inactive) | 2.9 µM (inactive) | 3.06 µM (inactive) | 20.6 µM (inactive) | 9.35 µM (inactive) | 42.9 µM (inactive) | 3.02 µM (inactive) | 7.31 µM (inactive) | 15.3 µM (inactive) | 11.2 µM (inactive) | 19.6 µM (inactive) | 13.9 µM (inactive) | 11.8 µM (inactive)
CCCCCCNC(=O)c1cc(NCc2cc(OC)ccc2OC)ccc1O | 18.9 µM (inactive) | 16.9 µM (inactive) | 13.3 µM (inactive) | 14.4 µM (inactive) | 15.5 µM (inactive) | 6.98 µM (inactive) | 22.8 µM (inactive) | 42.6 µM (inactive) | 20.2 µM (inactive) |  | 18.7 µM (inactive) | 21.3 µM (inactive) | 18.7 µM (inactive) | 32.8 µM (inactive) |  | 27.9 µM (inactive) | 21.7 µM (inactive)
CN1C(=O)C2C(=O)N(Cc3ccccc3)CC(=O)N2c2cccnc21 (stereo not given) | > 100 µM (inactive) | > 100 µM (inactive) | > 100 µM (inactive) | > 100 µM (inactive) | > 100 µM (inactive) | > 100 µM (inactive) | > 100 µM (inactive) | > 100 µM (inactive) | > 100 µM (inactive) | > 100 µM (inactive) | > 100 µM (inactive) | > 100 µM (inactive) | > 100 µM (inactive) | > 100 µM (inactive) | > 100 µM (inactive) | > 100 µM (inactive) | > 100 µM (inactive)
O=C(c1ccc(Cl)c(Cl)c1)N(C(=O)N1CCN(c2ccccc2)CC1)S(=O)(=O)c1ccccc1 | 26.2 µM (inactive) | 34 µM (inactive) | 38.2 µM (inactive) | > 100 µM (inactive) | 40.6 µM (inactive) | 20.9 µM (inactive) | 24.2 µM (inactive) | > 100 µM (inactive) | 32 µM (inactive) | > 100 µM (inactive) | 35.6 µM (inactive) |  | 37.2 µM (inactive) | 97.1 µM (inactive) | 31.6 µM (inactive) | 35.6 µM (inactive) | 23.2 µM (inactive)
COc1ccc(NC/C=C/C(=C/COC(C)=O)OC(C)=O)cc1 | 2.05 µM (inactive) | 2.59 µM (inactive) | 2.52 µM (inactive) | 2.27 µM (inactive) | 1.59 µM (inactive) | 1.8 µM (inactive) | 1.82 µM (inactive) | 1.87 µM (inactive) | 2.28 µM (inactive) | 1.39 µM (inactive) | 1.78 µM (inactive) | 1.8 µM (inactive) | 1.73 µM (inactive) | 1.73 µM (inactive) | 2.42 µM (inactive) | 1.18 µM (inactive) | 2.28 µM (inactive)
CCCSC1=N/C(=C\c2ccco2)C(=O)N1 | > 100 µM (inactive) | > 100 µM (inactive) | > 100 µM (inactive) |  | > 100 µM (inactive) | > 100 µM (inactive) | > 100 µM (inactive) | > 100 µM (inactive) | > 100 µM (inactive) | 89.7 µM (inactive) | > 100 µM (inactive) | > 100 µM (inactive) | > 100 µM (inactive) | > 100 µM (inactive) | > 100 µM (inactive) | > 100 µM (inactive) | > 100 µM (inactive)
C[C@@H]1S[C@H](c2c(F)cccc2Cl)n2c1nc1ccccc12 | 7.62 µM (inactive) | 14.1 µM (inactive) | 15.1 µM (inactive) |  | 11.6 µM (inactive) | > 10 µM (inactive) | 18.5 µM (inactive) | 28.5 µM (inactive) | 6.84 µM (inactive) |  | 11.5 µM (inactive) | 17.2 µM (inactive) | 15.2 µM (inactive) | 27.9 µM (inactive) | 15.3 µM (inactive) | 14.8 µM (inactive) | 15.7 µM (inactive)
c1ccc(C2(c3cc4ccccc4[nH]3)OCCO2)cc1 | 49.1 µM (inactive) | 67.6 µM (inactive) | 47 µM (inactive) |  | 75.7 µM (inactive) | 17.3 µM (inactive) | 32.2 µM (inactive) | > 100 µM (inactive) | 36.6 µM (inactive) | 37.2 µM (inactive) | > 100 µM (inactive) | 34 µM (inactive) | 33.3 µM (inactive) | 35.9 µM (inactive) |  | > 100 µM (inactive) | 42.6 µM (inactive)
CCN(CC)CCC(=O)c1ccc(Cl)c(Cl)c1 | > 10 µM (inactive) | 34.1 µM (inactive) | 20.8 µM (inactive) | 32.3 µM (inactive) | 21.2 µM (inactive) | 14.8 µM (inactive) | 47.4 µM (inactive) | > 10 µM (inactive) | 32.1 µM (inactive) | 18.5 µM (inactive) | > 10 µM (inactive) | 39.5 µM (inactive) | 42.3 µM (inactive) | 76.9 µM (inactive) | > 100 µM (inactive) | 17.5 µM (inactive) | 
NS(=O)(=O)c1ccc(NC(=O)c2cc([N+](=O)[O-])cc([N+](=O)[O-])c2)cc1 | 21.8 µM (inactive) | > 100 µM (inactive) | 32.4 µM (inactive) | 32.1 µM (inactive) | > 100 µM (inactive) | 21.7 µM (inactive) | 27.7 µM (inactive) | > 100 µM (inactive) | 21.1 µM (inactive) | 65.2 µM (inactive) | 39.4 µM (inactive) | 23.6 µM (inactive) | 47.8 µM (inactive) |  | > 100 µM (inactive) | 76.2 µM (inactive) | 34.1 µM (inactive)
O=C(O)CNC(=O)CO/N=C1/C(=C2/C(=O)Nc3ccccc32)Nc2ccccc21 | 84.9 µM (inactive) | > 100 µM (inactive) | > 100 µM (inactive) | 57.9 µM (inactive) | > 100 µM (inactive) | > 100 µM (inactive) | > 100 µM (inactive) | > 100 µM (inactive) | 60.8 µM (inactive) |  | > 100 µM (inactive) | 72.6 µM (inactive) | > 100 µM (inactive) | > 100 µM (inactive) | 27.4 µM (inactive) | > 100 µM (inactive) | > 100 µM (inactive)
